Columns and labels:
human factor XIa = human factor XIa (Homo sapiens, UniProt P03951); experiment: Factor XIa Assay; format: biochemical; details: human factor XIa 0.04 nM, 30 min pre-incubation at 25° C., substrate GPR-AFC, pH 7.4, 60 min incubation; read-out: FXIa IC50
Protocol: (§1) The effectiveness of a compound of the present invention as an inhibitor of Coagulation factor XIa can be determined using a relevant purified serine protease, and an appropriate synthetic substrate. The rate of hydrolysis of the chromogenic or fluorogenic substrate by the relevant serine protease was measured both in the absence and presence of compounds of the present invention. Assays were conducted at rt or at 37° C. […] A decrease in the rate of fluorescence change in the presence of inhibitor is indicative of enzyme inhibition. Such methods are known to one skilled in the art. The results of this assay are expressed as the half-maximal inhibitory concentrations (IC50), or the inhibitory constant, Ki.
Compounds were pre-incubated for 30 min at 25° C. with human (0.04 nM) factor XIa in 50 mM HEPES buffer with 150 mM sodium chloride, 5 mM calcium chloride, 0.1% PEG 8000, pH 7.4. factor XIa enzymatic activity was determined by addition of the substrate glycine-proline-arginine-7-amido-4-trifluoromethylcoumarin (GPR-AFC) and measurement of the fluorescence at 400/505 nm after a 60 min incubation at 25° C. The % inhibition for each data point was calculated from the data and analyzed using the log (inhibitor) vs. response four parameters equation to determine the half-maximal inhibitory concentrations (IC50). The IC50 were converted to equilibrium inhibitory constants (Ki) using the Cheng-Prusoff equation.

Human plasma kallikrein = molecular target: T1, Human plasma kallikrein (Homo sapiens, UniProt P03952); experiment: Plasma Kallikrein Assay; format: biochemical; details: purified Human plasma kallikrein 0.5 nM, substrate Acetyl-K-P-R-AFC, HEPES pH 7.4, fluorescence 405 Ex/510 Em; read-out: PKal IC50
T1 construct: yields a heavy chain (371 amino acids) and a light chain (248 amino acids); purchased Enzyme Research Laboratories
T1 sequence (P03952 391-638 limits assumed): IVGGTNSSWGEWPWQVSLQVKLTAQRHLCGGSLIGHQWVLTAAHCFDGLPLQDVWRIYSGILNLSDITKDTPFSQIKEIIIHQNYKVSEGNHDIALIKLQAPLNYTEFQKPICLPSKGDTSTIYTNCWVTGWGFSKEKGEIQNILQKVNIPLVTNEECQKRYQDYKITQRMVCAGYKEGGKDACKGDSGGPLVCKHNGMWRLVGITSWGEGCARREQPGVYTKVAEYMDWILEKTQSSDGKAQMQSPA
T1 sequence (P03952 20-390 partner limits assumed): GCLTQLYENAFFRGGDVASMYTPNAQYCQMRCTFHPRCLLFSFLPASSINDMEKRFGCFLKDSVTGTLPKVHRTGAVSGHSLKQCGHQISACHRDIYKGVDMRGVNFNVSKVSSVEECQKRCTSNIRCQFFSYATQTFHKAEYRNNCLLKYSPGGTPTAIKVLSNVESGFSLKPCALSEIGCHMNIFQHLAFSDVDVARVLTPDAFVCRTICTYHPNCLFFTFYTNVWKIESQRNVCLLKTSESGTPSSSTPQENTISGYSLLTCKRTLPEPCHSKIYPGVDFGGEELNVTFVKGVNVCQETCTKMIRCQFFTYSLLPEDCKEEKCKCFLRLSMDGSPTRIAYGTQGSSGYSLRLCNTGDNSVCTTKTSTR
Protocol: as §1, with “plasma kallikrein” for “Coagulation factor XIa”
Plasma kallikrein determinations were made in 50 mM HEPES buffer at pH 7.4 containing 150 mM NaCl, 5 mM CaCl2), and 0.1% PEG 8000 (polyethylene glycol: Fisher Scientific). Determinations were made using purified Human plasma kallikrein at a final concentration of 0.5 nM (Enzyme Research Laboratories) and the synthetic substrate, Acetyl-K-P-R-AFC (Sigma #C6608) at a concentration of […].
Activity assays were performed by diluting a stock solution of substrate at least tenfold to a final concentration ≤0.2 Km into a solution containing enzyme or enzyme equilibrated with inhibitor. Times required to achieve equilibration between enzyme and inhibitor were determined in control experiments. The reactions were performed under linear progress curve conditions and fluorescence increase measured at 405 Ex/510 Em nm. Values were converted to percent inhibition of the control reaction (after subtracting 100% Inhibition value). IC50 was determined by inflection point from a four parameter logistic curve fit. Ki was calculated using the Cheng Prusoff equation, Ki=IC50/(1+([S]/Km)).

Sequence of human factor XIa (P03951 388-625 limits assumed): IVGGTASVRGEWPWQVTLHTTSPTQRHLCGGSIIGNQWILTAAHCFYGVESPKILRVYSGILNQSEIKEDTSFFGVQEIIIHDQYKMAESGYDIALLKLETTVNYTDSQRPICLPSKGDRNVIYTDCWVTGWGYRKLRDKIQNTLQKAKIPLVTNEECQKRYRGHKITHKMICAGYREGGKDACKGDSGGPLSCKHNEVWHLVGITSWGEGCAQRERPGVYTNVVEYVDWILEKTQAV
Sequence of human factor XIa (P03951 19-387 partner limits assumed): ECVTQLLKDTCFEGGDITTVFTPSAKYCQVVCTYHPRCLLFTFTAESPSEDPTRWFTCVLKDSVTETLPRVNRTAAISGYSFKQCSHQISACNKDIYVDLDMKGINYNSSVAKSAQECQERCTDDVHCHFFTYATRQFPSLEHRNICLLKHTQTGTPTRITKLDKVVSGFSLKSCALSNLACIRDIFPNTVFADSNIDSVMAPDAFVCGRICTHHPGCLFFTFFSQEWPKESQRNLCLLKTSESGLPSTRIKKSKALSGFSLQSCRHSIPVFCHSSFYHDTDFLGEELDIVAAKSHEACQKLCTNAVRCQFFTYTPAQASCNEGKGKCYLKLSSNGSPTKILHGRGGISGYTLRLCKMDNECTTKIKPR

IC50 (human factor XIa) [nM] | IC50 (Human plasma kallikrein) [nM] | Structure (SMILES)
513 | 9.9 | Nc1cc(-c2ccc(F)cc2)nn1CC(=O)N1CC[C@@]2(C1)OC(=O)Nc1ccc(Cl)c(F)c12 [Example 1, (R)-1′-(2-(5-Amino-3-(4-fluorophenyl)-1H-pyrazol-1-yl)acetyl)-6-chloro-5-fluorospiro[benzo[d][1,3]oxazine-4,3′-pyrrolidin]-2(1H)-one 2,2,2-trifluoroacetate]
653 | 8 | Nc1cc(-c2ccc3c(c2)OCO3)nn1CC(=O)N1CC[C@@]2(C1)OC(=O)Nc1ccc(Cl)c(F)c12 [Example 2, (R)-1′-(2-(5-Amino-3-(benzo[d][1,3]dioxol-5-y1)-1H-pyrazol-1-yl)acetyl)-6-chloro-5-fluorospiro[benzo[d][1,3]oxazine-4,3′-pyrrolidin]-2(1H)-one]
347 | 37.8 | CC1(c2cc(N)n(CC(=O)N3CC[C@@]4(C3)OC(=O)Nc3ccc(Cl)c(F)c34)n2)CC1 [Example 3, (R)-1′-(2-(5-Amino-3-(1-methylcyclopropyl)-1H-pyrazol-1-yl)acetyl)-6-chloro-5-fluorospiro[benzo[d][1,3]oxazine-4,3′-pyrrolidin]-2(1H)-one]
315 | 16.3 | Nc1cc(C2CCCC2)nn1CC(=O)N1CC[C@@]2(C1)OC(=O)Nc1ccc(Cl)c(F)c12 [Example 4, (R)-1′-(2-(5-Amino-3-cyclopenty1-1H-pyrazol-1-yl)acetyl)-6-chloro-5-fluorospiro[benzo[d][1,3]oxazine-4,3′-pyrrolidin]-2(1H)-one]
685 | 30.6 | Nc1cc(C2CCOCC2)nn1CC(=O)N1CC[C@@]2(C1)OC(=O)Nc1ccc(Cl)c(F)c12 [Example 5, (R)-1′-(2-(5-Amino-3-(tetrahydro-2H-pyran-4-y1)-1H-pyrazol-1-yl)acetyl)-6-chloro-5-fluorospiro[benzo[d][1,3]oxazine-4,3′-pyrrolidin]-2(1H)-one]
904 | 10.1 | COc1ccc(-c2cc(N)n(CC(=O)N3CC[C@@]4(C3)OC(=O)Nc3ccc(Cl)c(F)c34)n2)cc1 [Example 6, (R)-1′-(2-(5-Amino-3-(4-methoxyphenyl)-1H-pyrazol-1-yl)acetyl)-6-chloro-5-fluorospiro[benzo[d][1,3]oxazine-4,3′-pyrrolidin]-2(1H)-one]
4140 | 49 | Nc1cc(-c2ccc(OC(F)(F)F)cc2)nn1CC(=O)N1CC[C@@]2(C1)OC(=O)Nc1ccc(Cl)c(F)c12 [Example 7, (R)-1′-(2-(5-Amino-3-(4-(trifluoromethoxy)phenyl)-1H-pyrazol-1-yl)acetyl)-6-chloro-5-fluorospiro[benzo[d][1,3]oxazine-4,3′-pyrrolidin]-2(1H)-one]
679 | 11.8 | COc1cccc(-c2cc(N)n(CC(=O)N3CC[C@@]4(C3)OC(=O)Nc3ccc(Cl)c(F)c34)n2)c1 [Example 8, (R)-1′-(2-(5-Amino-3-(3-methoxyphenyl)-1H-pyrazol-1-yl)acetyl)-6-chloro-5-fluorospiro[benzo[d][1,3]oxazine-4,3′-pyrrolidin]-2(1H)-one]
389 | 12.9 | Nc1cc(-c2cccnc2)nn1CC(=O)N1CC[C@@]2(C1)OC(=O)Nc1ccc(Cl)c(F)c12 [Example 9, (R)-1′-(2-(5-Amino-3-(pyridin-3-yl)-1H-pyrazol-1-yl)acetyl)-6-chloro-5-fluorospiro[benzo[d][1,3]oxazine-4,3′-pyrrolidin]-2(1H)-one]
506 | 27.4 | Nc1cc(C2CC2)nn1CC(=O)N1CC[C@@]2(C1)OC(=O)Nc1ccc(Cl)c(F)c12 [Example 10]
672 | 32.3 | Nc1cc(C2CC(F)(F)C2)nn1CC(=O)N1CC[C@@]2(C1)OC(=O)Nc1ccc(Cl)c(F)c12 [Example 11, (R)-1′-(2-(5-Amino-3-(3,3-difluorocyclobutyl)-1H-pyrazol-1-yl)acetyl)-6-chloro-5-fluorospiro[benzo[d][1,3]oxazine-4,3′-pyrrolidin]-2(1H)-one]

From patent US20240208994A1, “PLASMA KALLIKREIN INHIBITORS” (Merck Sharp & Dohme LLC, priority 2021, published 2024)
